Experimental data taken from patent US5675007A (priority 1994, dated 1997).

Key:
[1] = target: muscarinic receptors ([^3 H]-OXO-M binding); assay: Inhibition of [^3 H]-oxotremorine-M ([^3 H]-OXO-M) binding, rat cerebral cortex; set-up: species or system rat (male Hooded Lister); details: [^3 H]-OXO-M 1.88 nM, 37° C., geometric mean, n = 2
[2] = target: muscarinic receptors ([^3 H]-QNB binding); set-up: species or system rat (male Hooded Lister); details: rat cerebral cortex; [^3 H]-QNB 0.27 nM; geometric mean; n = 2
[3] = Functional studies in vivo: salivation; set-up: species or system mouse (male CD1); details: mouse, read-out: Salivation ED50 (dose inducing 50% of the maximum score)
Protocol: (§1) Male mice (CD1, Charles River UK, 25-35 g) were used in the in vivo experiments. Animals were housed in groups of 10 and allowed food and water ad libitum. Two hours prior to the experiment the animals were rehoused in groups of 5 and allowed to acclimatize to their new environment. Each group was assigned one dose of test compound.
(§2) Test compounds or vehicle were administered by either the subcutaneous (sc) or oral (po) routes. Animals were subjectively assessed for signs of salivation and body tremor 15, 30, 45, 60, 90, 120, 150, 180, 240 and 300 minutes post dose, using a scoring system: 0=absent; 1=mild; 2=moderate; 3=severe. Changes in core body temperature, a measure of central activity, were recorded at the same timepoints using a rectal probe (Comark Electronic Thermometer Type 9001 )

[4] = Functional studies in vivo: hypothermia (core body temperature); set-up: species or system mouse (male CD1); details: mouse, 95% CL on next line
Protocol: as §1, §2

[5] = Functional studies in vivo: body tremor; set-up: species or system mouse (male CD1); details: mouse, read-out: Tremor ED50 (dose inducing 50% of the maximum score)
Protocol: as §1, §2

## CO/N=C(\C#N)[C@H]1C[N+]2([O-])CCC1CC2 [Compound X, [R-(Z)]-α-(methoxyimino)-α-(1-azabicyclo[2.2.2]oct-3-yl)acetonitrile-1-oxide]
[1]
  IC50: 2.86 µM
[2]
  IC50: 68.7 µM
[3]; oral
  ED50: < 0.3 mg/kg
[3]; sc, subcutaneous, 95% CL on next line
  ED50: 2.38 mg/kg
[4]; oral
  Hypothermia ED3° (dose inducing 3° fall in core body temperature): 5.8 mg/kg
[4]; subcutaneous
  Hypothermia ED3° (dose inducing 3° fall in core body temperature): 21.3 mg/kg
[5]; oral
  ED50: > 30 mg/kg
[5]; sc, subcutaneous
  ED50: > 30 mg/kg
